Laboratory results reported in US20240124418A1 (BioTheryX, Inc., priority 2020, published 2024).

System: TNF-α
Assay: Cell-based TNF-α inhibition assay (LPS-induced PBMCs, Meso Scale)
Details: PBMC, PBMCs pretreated 1 h, LPS 100 ng/mL 18-24 h, percentage of stimulated DMSO control; for inhibition at 0.1 µM: compound concentration 0.1 μM; for inhibition at 1 µM: compound concentration 1 μM
Method: Example B1. Cell-Based TNF-α Inhibition Assay
Frozen primary blood mononuclear cells (PBMCs) were quick thawed, washed once with RPMI 1640 media supplemented with 10% fetal bovine serum, 1% penicillin, and 1% streptomycin, and plated in a 96 well plate at 200,000 cells per well. The cells were pretreated with DMSO only as a control or a compound for 1 h, and then induced with LPS (lipopolysaccharide) (100 ng/mL) for 18-24 h. The supernatant was analyzed for TNF-α using the Meso Scale assay. Compound activity was determined as a percentage of the stimulated DMSO control. The results are summarized in Table 1, where A represents a percent inhibition value ≥60%; B represents a percent inhibition value <60% and ≥40%; C represents a percent inhibition value <40% and ≥20%; and D represents a single percent inhibition value <20%.

SMILES | inhibition at 0.1 µM [%] | inhibition at 1 µM [%]
CCOc1cc([C@@H](CS(C)(=O)=O)N2C(=O)c3cccc(NC(=O)CCCCN4CCN(CC(=O)N[C@H](C(=O)N5C[C@H](O)C[C@H]5C(=O)NCc5ccc(-c6scnc6C)cc5)C(C)(C)C)CC4)c3C2=O)ccc1OC [Compound A63, (2S,4R)-1-[(2S)-2-(2-{4-[4-({2-[(1S)-1-(3-Ethoxy-4-methoxyphenyl)-2-methanesulfonylethyl]-1,3-dioxo-2,3-dihydro-1H-isoindol-4-yl}carbamoyl)butyl]piperazin-1-yl}acet-amido)-3,3-dimethylbutanoyl]-4-hydroxy-N-{[4-(4-methyl-1,3-thiazol-5-yl)phenyl]methyl}-pyrrolidine-2-carboxamide] | ≥ 60 | ≥ 60
CCOc1cc([C@@H](CS(C)(=O)=O)N2C(=O)c3cccc(NC(=O)CCCCCCCCCCC(=O)N[C@H](C(=O)N4C[C@H](O)C[C@H]4C(=O)NCc4ccc(-c5scnc5C)cc4)C(C)(C)C)c3C2=O)ccc1OC [Compound A64, N-{2-[(1S)-1-(3-Ethoxy-4-methoxyphenyl)-2-methanesulfonylethyl]-1,3-dioxo-2,3-dihydro-1H-isoindol-4-yl}-N′-[(2S)-1-[(2S,4R)-4-hydroxy-2-({[4-(4-methyl-1,3-thiazol-5-yl)phenyl]methyl}carbamoyl)pyrrolidin-1-yl]-3,3-dimethyl-1-oxobutan-2-yl]dodecanediamide] | ≥ 60 | ≥ 60
CCOc1cc([C@@H](CS(C)(=O)=O)N2C(=O)c3cccc(NC(=O)CCCCCCCCCN[C@H](C(=O)N4C[C@H](O)C[C@H]4C(=O)NCc4ccc(-c5scnc5C)cc4)C(C)(C)C)c3C2=O)ccc1OC [Compound A65, (2S,4R)-1-[(2S)-2-{[9-({2-[(1S)-1-(3-Ethoxy-4-methoxyphenyl)-2-methanesulfonylethyl]-1,3-dioxo-2,3-dihydro-1H-isoindol-4-yl}carbamoyl)nonyl]amino}-3,3-dimethylbutanoyl]-4-hydroxy-N-{[4-(4-methyl-1,3-thiazol-5-yl)phenyl]methyl}pyrrolidine-2-carboxamide] | ≥ 60 | ≥ 60
CCOc1cc([C@@H](CS(C)(=O)=O)N2C(=O)c3cccc(NCC(=O)N4CCN(CCCCC(=O)N[C@H](C(=O)N5C[C@H](O)C[C@H]5C(=O)NCc5ccc(-c6scnc6C)cc5)C(C)(C)C)CC4)c3C2=O)ccc1OC [Compound A66, (2S,4R)-1-[(2S)-2-(5-{4-[2-({2-[(1S)-1-(3-Ethoxy-4-methoxyphenyl)-2-methanesulfonylethyl]-1,3-dioxo-2,3-dihydro-1H-isoindol-4-yl}amino)acetyl]piperazin-1-yl}pentan-amido)-3,3-dimethylbutanoyl]-4-hydroxy-N-{[4-(4-methyl-1,3-thiazol-5-yl)phenyl]methyl}-pyrrolidine-2-carboxamide] | 40 to 60 | ≥ 60
CCOc1cc([C@@H](CS(C)(=O)=O)N2C(=O)c3cccc(NC(=O)CCCCCCCCOc4cc(-c5scnc5C)ccc4CNC(=O)[C@@H]4C[C@@H](O)CN4C(=O)[C@@H](NC(C)=O)C(C)(C)C)c3C2=O)ccc1OC [Compound A74, (2S,4R)-1-[(2S)-2-Acetamido-3,3-dimethylbutanoyl]-N-[(2-{[8-({2-[(1S)-1-(3-ethoxy-4-methoxyphenyl)-2-methanesulfonylethyl]-1,3-dioxo-2,3-dihydro-1H-isoindol-4-yl}-carbamoyl)octyl]oxy}-4-(4-methyl-1,3-thiazol-5-yl)phenyl)methyl]-4-hydroxypyrrolidine-2-carboxamide] | ≥ 60 | ≥ 60
CCOc1cc([C@@H](CS(C)(=O)=O)N2C(=O)c3cccc(NC(=O)CCCCCCCCCCOc4cc(-c5scnc5C)ccc4CNC(=O)[C@@H]4C[C@@H](O)CN4C(=O)[C@@H](NC(C)=O)C(C)(C)C)c3C2=O)ccc1OC [Compound A75, (2S,4R)-1-[(2S)-2-Acetamido-3,3-dimethylbutanoyl]-N-[(2-{[10-({2-[(1S)-1-(3-ethoxy-4-methoxyphenyl)-2-methanesulfonylethyl]-1,3-dioxo-2,3-dihydro-1H-isoindol-4-yl}-carbamoyl)decyl]oxy}-4-(4-methyl-1,3-thiazol-5-yl)phenyl)methyl]-4-hydroxypyrrolidine-2-carboxamide] | ≥ 60 | ≥ 60
CCOc1cc([C@@H](CS(C)(=O)=O)N2C(=O)c3cccc(NC(=O)CCCCCCOc4cc(-c5scnc5C)ccc4CNC(=O)[C@@H]4C[C@@H](O)CN4C(=O)[C@@H](NC(C)=O)C(C)(C)C)c3C2=O)ccc1OC [Compound A76, (2S,4R)-1-[(2S)-2-Acetamido-3,3-dimethylbutanoyl]-N-[(2-{[6-({2-[(1S)-1-(3-ethoxy-4-methoxyphenyl)-2-methanesulfonylethyl]-1,3-dioxo-2,3-dihydro-1H-isoindol-4-yl}-carbamoyl)hexyl]oxy}-4-(4-methyl-1,3-thiazol-5-yl)phenyl)methyl]-4-hydroxypyrrolidine-2-carboxamide] | 40 to 60 | ≥ 60
CCOc1cc([C@@H](CS(C)(=O)=O)N2C(=O)c3cccc(NC(=O)CCCCCCCN4CCN(CC(=O)Nc5ccc6c(C7CCC(=O)NC7=O)nn(C)c6c5)CC4)c3C2=O)ccc1OC (stereo partly drawn) [Compound A77, 8-[4-({[3-(2,6-Dioxopiperidin-3-yl)-1-methyl-1H-indazol-6-yl]carbamoyl}-methyl)piperazin-1-yl]-N-{2-[(1S)-1-(3-ethoxy-4-methoxyphenyl)-2-methanesulfonylethyl]-1,3-dioxo-2,3-dihydro-1H-isoindol-4-yl}octanamide] | ≥ 60 | ≥ 60
CCOc1cc([C@@H](CS(C)(=O)=O)N2C(=O)c3cccc(NC(=O)CCCCCN4CCN(CC(=O)Nc5ccc6c(C7CCC(=O)NC7=O)nn(C)c6c5)CC4)c3C2=O)ccc1OC (stereo partly drawn) [Compound A78, 6-[4-({[3-(2,6-Dioxopiperidin-3-yl)-1-methyl-1H-indazol-6-yl]carbamoyl}-methyl)piperazin-1-yl]-N-{2-[(1S)-1-(3-ethoxy-4-methoxyphenyl)-2-methanesulfonylethyl]-1,3-dioxo-2,3-dihydro-1H-isoindol-4-yl}hexanamide] | ≥ 60 | ≥ 60
CCOc1cc([C@@H](CS(C)(=O)=O)N2C(=O)c3cccc(NC(=O)CCCCCCCCCN4CCN(CC(=O)Nc5ccc6c(C7CCC(=O)NC7=O)nn(C)c6c5)CC4)c3C2=O)ccc1OC (stereo partly drawn) [Compound A79, 10-[4-({[3-(2,6-Dioxopiperidin-3-yl)-1-methyl-1H-indazol-6-yl]carbamoyl}-methyl)piperazin-1-yl]-N-{2-[(1S)-1-(3-ethoxy-4-methoxyphenyl)-2-methanesulfonylethyl]-1,3-dioxo-2,3-dihydro-1H-isoindol-4-yl}decanamide] | ≥ 60 | ≥ 60
CCOc1cc([C@@H](CS(C)(=O)=O)N2C(=O)c3cccc(NC(=O)CCCCCN4CCN(CC(=O)Nc5ccc(C6CCC(=O)NC6=O)cc5)CC4)c3C2=O)ccc1OC (stereo partly drawn) [Compound A83, 6-[4-({[4-(2,6-Dioxopiperidin-3-yl)phenyl]carbamoyl}methyl)piperazin-1-yl]-N-{2-[(1S)-1-(3-ethoxy-4-methoxyphenyl)-2-methanesulfonylethyl]-1,3-dioxo-2,3-dihydro-1H-isoindol-4-yl}hexanamide] | ≥ 60 | ≥ 60
CCOc1cc([C@@H](CS(C)(=O)=O)N2C(=O)c3cccc(NC(=O)CCCCCCCN4CCN(CC(=O)Nc5ccc(C6CCC(=O)NC6=O)cc5)CC4)c3C2=O)ccc1OC (stereo partly drawn) [Compound A84, 8-[4-({[4-(2,6-Dioxopiperidin-3-yl)phenyl]carbamoyl}methyl)piperazin-1-yl]-N-{2-[(1S)-1-(3-ethoxy-4-methoxyphenyl)-2-methanesulfonylethyl]-1,3-dioxo-2,3-dihydro-1H-isoindol-4-yl}octanamide] | ≥ 60 | ≥ 60
CCOc1cc([C@@H](CS(C)(=O)=O)N2C(=O)c3cccc(NC(=O)CCCCCCCN4CCN(CC(=O)Nc5cccc(C6CCC(=O)NC6=O)c5)CC4)c3C2=O)ccc1OC (stereo partly drawn) [Compound A85, 8-[4-({[3-(2,6-Dioxopiperidin-3-yl)phenyl]carbamoyl}methyl)piperazin-1-yl]-N-{2-[(1S)-1-(3-ethoxy-4-methoxyphenyl)-2-methanesulfonylethyl]-1,3-dioxo-2,3-dihydro-1H-isoindol-4-yl}octanamide] | ≥ 60 | ≥ 60
CCOc1cc([C@@H](CS(C)(=O)=O)N2C(=O)c3cccc(NC(=O)CCCCCCCCCN4CCN(CC(=O)Nc5ccc(C6CCC(=O)NC6=O)cc5)CC4)c3C2=O)ccc1OC (stereo partly drawn) [Compound A86, 10-[4-({[4-(2,6-Dioxopiperidin-3-yl)phenyl]carbamoyl}methyl)piperazin-1-yl]-N-{2-[(1S)-1-(3-ethoxy-4-methoxyphenyl)-2-methanesulfonylethyl]-1,3-dioxo-2,3-dihydro-1H-isoindol-4-yl}decanamide] | ≥ 60 | ≥ 60
CCOc1cc([C@@H](CS(C)(=O)=O)N2C(=O)c3cccc(NC(=O)CCCCCN4CCN(CC(=O)Nc5cccc(C6CCC(=O)NC6=O)c5)CC4)c3C2=O)ccc1OC (stereo partly drawn) [Compound A87, 6-[4-({[3-(2,6-Dioxopiperidin-3-yl)phenyl]carbamoyl}methyl)piperazin-1-yl]-N-{2-[(1S)-1-(3-ethoxy-4-methoxyphenyl)-2-methanesulfonylethyl]-1,3-dioxo-2,3-dihydro-1H-isoindol-4-yl}hexanamide] | ≥ 60 | ≥ 60
